{"source": "paper PMC8037310", "about": "“Thrombin-Derived Peptides Potentiate the Activity of Gram-Positive-Specific Antibiotics against Gram-Negative Bacteria” (Molecules, 2021)", "key": {"E. coli BW25113 [1]": {"tested_on": "E. coli BW25113", "test": "Checkerboard assay with erythromycin", "format": "cell-based, Escherichia coli", "experimental": "(§1) All peptides were screened for antimicrobial activity against E. coli BW25113, E. coli ATCC25922, and E. coli W3110. A select group of the peptides was further tested against E. coli mcr-1, E. coli EQASmcr-1 (EQAS 2016 412016126), E. coli EQASmcr-2 (EQAS 2016 KP37), E. coli EQASmcr-3 (EQAS 2017 2013-SQ352), K. pneumoniae ATCC13883, P. aeruginosa ATCC27853, and A. baumannii ATCC17978. The antimicrobial assay was performed according to CLSI guidelines. Bacteria were plated out directly from their glycerol stocks on blood agar plates, incubated overnight at 37 °C, and then kept in the fridge. The blood agar plates were only used for 2 weeks and then replaced.\n(§2) One colony from a blood agar plates was inoculated in Lysogeny Broth (LB) at 37 °C until a 0.5 optical density at 600 nm (OD600) was reached (compared to the sterility control of LB). The bacterial suspension was diluted in fresh LB to 2.0 × 10^6 CFU/mL. The serial dilutions were prepared in polypropylene microtiter plates: a stock of the test compounds was prepared with a 2x final concentration in LB. Moreover, 100 µL of the stock was added to the wells of the top row of which 50 µL was used for the serial dilution. The bottom row of each plate was used as the positive (50 µL of LB) and negative controls (100 µL of LB) (6 wells each). Furthermore, 50 µL of the 2.0 × 10^6 CFU/mL bacterial stock was added to each well except for the negative controls, adding up to a total volume of 100 µL per well. The plates were sealed with a breathable seal and incubated for 20 h at 37 °C and 600 rpm.\n(§3) Two 96-well plates were required per compound. A serial dilution of the compound was performed on two plates from row A–G using with LB as medium. Row H was filled with 25 µL medium. On a separate plate a negative control (8 wells, 100 μL medium) was prepared. For all concentrations of antibiotic a specific stock was prepared. 25 µL medium was added to the 0 µg/mL antibiotic columns (plate I, column 1–3). Of each antibiotic stock 25 µL was added to three columns to obtain triplicates for every condition. Both plates contained 50 µL in each well to which 50 µL bacterial stock was added (see the protocol of the MIC assays) and the plates were sealed. After incubation for 20 h at 37 °C while shaking, the breathable seals were removed and the density of the bacterial suspensions measured at 600 nm (OD600) using a Tecan Spark plate reader. The OD600 values were transformed to a 2D gradient with the negative control as minimum and the positive control (wells G1, G2, and G3) as maximum in excel. The FICi was calculated using Equation (1) with a FICi ≤ 0.5 indicating synergy. FICi = (MSCa/MICa) + (MSCb/MICb),(1)\n(§4) Calculation of the FICi: MSCa = concentration of the […] in combination with the antibiotic that results in the lowest FICi. MICa = MIC of the antibiotic without synergist (row G). MSCb = concentration of the synergist in combination with the antibiotic that results in the lowest FICi. MICb = MIC of the synergist itself (Column 1–3, plate I)."}, "E. coli BW25113 [2]": {"tested_on": "E. coli BW25113", "format": "cell-based, Escherichia coli", "experimental": "as §1, §2, §3, §4"}, "[3]": {"tested_on": "defibrinated sheep blood (red blood cells)", "test": "Hemolysis assay", "format": "cell-based", "conditions": "200 µg/mL compound, 20 h incubation at 37 °C with defibrinated sheep blood, PBS 0.002% Tween20, absorbance 415 nm, relative to 0.1% Triton X-100; n=3 technical replicates", "experimental": "Defibrinated sheep blood (Thermo Fisher Scientific) and a phosphate-buffered saline (PBS) buffer containing 0.002% Tween20 were used in this assay. The red blood cells were washed with buffer followed by centrifugation (400 g for 15 min at 4 °C). The red blood cells were then normalized to obtain a positive control read-out around 2.5 at 415 nm to stay in the linear range with the maximum sensitivity. A serial dilution of the compounds (200–1.56 µg/mL, 75 µL) was prepared in a 96-well plate. Each plate contained a positive control (0.1% Triton X-100 final concentration, 75 µL) and the negative control (buffer, 75 µL). After addition of normalized blood cells (75 µL), the plates were incubated for 20 h at 37 °C at 500 rpm. The plates were centrifuged (800× g for 5 min at room temperature). For the next step flat-bottom polystyrene plates were prepared with 100 µL buffer in each well. Aliquots of 25 µL supernatant from the centrifuged plates were then transferred to their respective wells in the flat-bottom plate. Absorbance values where measured at 415 nm and corrected for background (negative control) and transformed to a percentage hemolysis relative to the positive control."}, "P. aeruginosa ATCC27853": {"tested_on": "P. aeruginosa ATCC27853", "test": "Checkerboard assay with rifampicin", "format": "cell-based, Pseudomonas aeruginosa", "experimental": "as §1, §2, §3, §4"}, "E. coli ATCC25922": {"tested_on": "E. coli ATCC25922", "format": "cell-based, Escherichia coli", "conditions": "rifampicin without synergist; E. coli ATCC25922", "experimental": "as §1, §2, §3, §4"}, "E. coli mcr-1": {"tested_on": "E. coli mcr-1", "format": "cell-based, Escherichia coli", "conditions": "rifampicin without synergist; E. coli mcr-1", "experimental": "as §1, §2, §3, §4"}, "A. baumannii ATCC17978": {"tested_on": "A. baumannii ATCC17978", "test": "microbe, parasite or virus in culture", "format": "cell-based, Acinetobacter baumannii", "experimental": "as §1, §2, §3, §4"}, "K. pneumoniae ATCC13883": {"tested_on": "K. pneumoniae ATCC13883", "test": "Checkerboard assay with rifampicin", "format": "cell-based, Klebsiella pneumoniae", "experimental": "as §1, §2, §3, §4"}, "E. coli BW25113 [4]": {"tested_on": "E. coli BW25113", "test": "microbe, parasite or virus in culture", "format": "cell-based, Escherichia coli", "experimental": "as §1, §2, §3, §4"}}, "note": "“And” between values parts separate entries of the source, which are not always exact repeats. Identical values can stand only once. Square brackets hold non-standard residues; d marks the D form. Peptide text beside a SMILES is read from it.", "data": [{"smiles": "CC[C@@H](C)[C@@H](N)C(=O)N[C@@H](C(=O)N[C@H](CCCCN)C(=O)N[C@H](CCC(N)=O)C(=O)N[C@@H](C(=O)N[C@H](Cc1c[nH]c2ccccc12)C(=O)N[C@H](CCCCN)C(=O)N[C@H](CCCCN)C(=O)N[C@H](CC(C)C)C(=O)N[C@H](CCCNC(=N)N)C(=O)N[C@H](Cc1ccccc1)C(=O)N[C@@H](C(N)=O)C(C)C)[C@H](C)CC)C(C)C", "note": "[peptide 22] (H-[dI][dV][dK][dQ][dI][dW][dK][dK][dL][dR][dF][dV]-NH2)", "values": [{"measurement": "MSCery", "setting": "E. coli BW25113 [1]; erythromycin concentration in the combination with the synergist giving the lowest FICi, E. coli BW25113", "value": 6.25, "unit": "µg/mL"}, {"measurement": "MIC of the peptide (MICpep)", "setting": "E. coli BW25113 [1]; synergist alone, E. coli BW25113, LB, 20 h 37 °C, from checkerboard with erythromycin", "value": 100, "unit": "µg/mL"}, {"measurement": "MSCpeptide, minimum synergistic concentration", "setting": "E. coli BW25113 [1]; synergist concentration in the combination with erythromycin giving the lowest FICi, E. coli BW25113, LB, 20 h 37 °C, OD600", "value": 6.25, "unit": "µg/mL"}, {"measurement": "FICi", "setting": "E. coli BW25113 [2]; BW25113, 20 h", "value": 0.1406}, {"measurement": "MSCrif", "setting": "E. coli BW25113 [2]; rifampicin concentration in the combination giving the lowest FICi, E. coli BW25113", "value": 0.25, "unit": "µg/mL"}, {"measurement": "MICpep", "setting": "E. coli BW25113 [2]; synergist alone, E. coli BW25113, from checkerboard with rifampicin", "value": 50, "unit": "µg/mL"}, {"measurement": "MSCpep", "setting": "E. coli BW25113 [2]; synergist concentration in the combination with rifampicin giving the lowest FICi, E. coli BW25113", "value": 6.25, "unit": "µg/mL"}, {"measurement": "Hemolysis", "setting": "[3]", "value": "3.2% and 3%"}]}, {"smiles": "CO[C@H]1/C=C/O[C@@]2(C)Oc3c(C)c(O)c4c(O)c(c(/C=N/N5CCN(C)CC5)c(O)c4c3C2=O)NC(=O)/C(C)=C\\C=C\\[C@H](C)[C@H](O)[C@@H](C)[C@@H](O)[C@@H](C)[C@H](OC(C)=O)[C@@H]1C", "note": "[rifampicin, reference compound]", "values": [{"measurement": "MIC", "setting": "P. aeruginosa ATCC27853; Pseudomonas aeruginosa, ATCC27853, read-out: MIC of rifampicin (MICrif)", "value": 16, "unit": "µg/mL"}, {"measurement": "MIC of rifampicin (MICrif)", "setting": "P. aeruginosa ATCC27853; rifampicin without synergist, P. aeruginosa ATCC27853", "value": 16, "unit": "µg/mL"}, {"measurement": "MICrif", "setting": "E. coli ATCC25922", "value": 4, "unit": "µg/mL"}, {"measurement": "MICrif", "setting": "E. coli mcr-1", "value": 12, "unit": "µg/mL"}, {"measurement": "MIC", "setting": "A. baumannii ATCC17978; Acinetobacter baumannii, ATCC17978, read-out: MIC of rifampicin (MICrif)", "value": 2, "unit": "µg/mL"}, {"measurement": "MIC of rifampicin (MICrif)", "setting": "A. baumannii ATCC17978; rifampicin without synergist, A. baumannii ATCC17978", "value": 2, "unit": "µg/mL"}, {"measurement": "MIC", "setting": "K. pneumoniae ATCC13883; Klebsiella pneumoniae, ATCC13883, read-out: MIC of rifampicin (MICrif)", "value": 32, "unit": "µg/mL"}, {"measurement": "MIC of rifampicin (MICrif)", "setting": "K. pneumoniae ATCC13883; rifampicin without synergist, K. pneumoniae ATCC13883", "value": 32, "unit": "µg/mL"}]}, {"smiles": "CN[C@H](CC(C)C)C(=O)N[C@H]1C(=O)N[C@@H](CC(N)=O)C(=O)N[C@H]2C(=O)N[C@H]3C(=O)N[C@H](C(=O)N[C@H](C(=O)O)c4cc(O)cc(O)c4-c4cc3ccc4O)[C@H](O)c3ccc(c(Cl)c3)Oc3cc2cc(c3O[C@@H]2O[C@H](CO)[C@@H](O)[C@H](O)[C@H]2O[C@H]2C[C@](C)(N)[C@H](O)[C@H](C)O2)Oc2ccc(cc2Cl)[C@H]1O", "note": "[vancomycin, reference compound]", "values": [{"measurement": "MIC", "setting": "E. coli BW25113 [4]; Escherichia coli, BW25113, read-out: MIC of vancomycin (MICvanco)", "value": "> 200", "unit": "µg/mL"}, {"measurement": "MIC of vancomycin (MICvanco)", "setting": "E. coli BW25113 [4]; antibiotic without synergist, E. coli BW25113", "value": "> 200", "unit": "µg/mL"}]}]}
